In one series the test system is U-937 cells. Put plainly: Protection against H2O2 treatment of U-937 cells (cell survival). It is filed as cell-based. The following applies: FIG. 13. Here is the method: We have made multiple derivatives of PIP-1; these compounds are shown below in Table 2 and in FIG. 11 and labeled Structures 1-39. The neuroprotective effects of structures 1-26 were tested in the cellular assay and compared to the neuroprotective effect of PIP-1 (FIG. 13).
PIP-1 and structures 1-26 were screened for protection against H2O2 treatment of U-937 cells FIG. 13.

The nature of series [1]: Assessment of PIP-1 levels in the brain (blood-brain-barrier penetrance). In kind it is in vivo, mice. To be noted: 50 mg/kg i.p. Here is the method: As a prelude to assessment of PIP-1 in a mouse model of PD, the ability of PIP-1 to penetrate the blood-brain-barrier is first assessed. PIP-1 is injected i.p. at a dose of 50 mg/kg, and mice are sacrificed at 1 and 2 h post injection. After sacrifice, to establish the presence of PIP-1 in the brain the striatum was dissected, sonicated in perchloric acid, and centrifuged. The clarified supernatant is analyzed by HPLC. No endogenous compounds interfere with this assay for PIP-1 as no signal is detected in dissected striata from non-treated mice. As shown by FIG. 21A, the striatal penetrance of PIP-1 is at the level of 70 ng/mg of protein. […] Given this blood-brain-barrier penetrance by PIP-1, the compound is assessed in the MPTP mouse model of PD. […] PIP-1 is assessed at concentrations of 0 mg/kg, 1 mg/kg, 5 mg/kg, 10 mg/kg, and 50 mg/kg, and five mice are used in each group. After 30 days, the mice are sacrificed and the striatum dissected and analyzed by HPLC to determine the levels of dopamine and various dopamine metabolites.
Assessment of PIP-1 levels in the brain: PIP-1 was injected into mice i.p. at 50 mg/kg and were sacrificed at 1 and 2 h post injection. […] The clarified supernatant was then injected into an HPLC and the concentration of PIP-1 was determined by comparison to a standard curve. […]

Series [2] relates to poly(ADP-ribose) in PC-12 cells. Briefly: Intracellular PAR staining in H2O2-treated PC-12 cells (flow cytometry). In kind it is cell-based. The following applies: PC-12 cells pre-treated with PIP-1, then H2O2. Here is the method: Screening of the 22,000 compounds in this manner produced 38 primary hits (FIG. 15A—“initial hits”). These 38 compounds are assessed for their ability to inhibit PARP-1 and PARG using standard in vitro assays. (12, 29) 20 compounds are PARP-1 inhibitors, and 3 are PARG inhibitors (FIG. 15A). Compounds 1 and 2 inhibit PARG quite well, with IC50 values of ˜0.4-0.5 μM (FIG. 15C). […] Subsequent efforts therefore focused on compound 1, which is named PIP-1 (pyridazinone inhibitor of PARG), and derivatives thereof. […] To determine if PIP-1 could induce the build-up of PAR in cell culture, PC-12 cells were treated with a range of PIP-1 concentrations; H2O2 was then added to induce PARP-1 activity and the cellular PAR levels were quantitated with an anti-PAR antibody and flow cytometry.
Intracellular PAR staining: 1 mL of 10^6 cells/mL PC-12 cells is added to the wells of a 24-well plate. Varying concentrations of PIP-1 or DMSO as a control are added to the cells and incubated for 2 h at 37° C. H2O2 is added to the cells to approximately […]. After a 2 h incubation at 37° C., the cells are thoroughly washed in PBS and fixed overnight in 4° C. ethanol. The cells are again washed in PBS and stained with a 1:50 dilution of anti-poly(ADP-ribose) antibody for 4 h at 4° C. […] After washing with PBS, the fluorescent intensity of each cell is determined by flow cytometry.

The record followed here is patent publication US20090012088A1 (priority 2005, published 2009).

For `CN(C)c1cnn(-c2ccccc2)c(=O)c1N` [PIP-1, 4-Amino-5-dimethylamino-2-phenyl-2H-pyridazin-3-one], the “Protection of U-937 cells treated with H2O2 (activity compared to PIP-1)” value with U-937 cells is listed as “activity similar or better than PIP-1”. Moreover, the “Striatal penetrance of PIP-1” value in series [1] (mice, 1 and 2 h post injection, striatum) is given as 70 ng/mg of protein. In series [1] (same time points), the “PIP-1 in peripheral blood” value is given as “no detectable PIP-1”. In addition, the “Accumulation of intracellular PAR” value in series [2] is recorded as “dose-dependent accumulation of intracellular PAR”.
